In the NIST ThermoML archive (doi:10.1016/j.jct.2005.05.004):

How the values were obtained:
[1] = refractive index (Na D-line) (dimensionless); settings: 298.15 K; 101.33 kPa; Liquid
[2] = 298.15 K; 101.33 kPa; Liquid; Vibrating tube method
[3] = xn = mol fraction of the nth substance listed; settings: 298.15 K, 101.32 kPa, Liquid, Vibrating tube method
[4] = refractive index (Na D-line) (dimensionless); xn = mol fraction of the nth substance listed; settings: 298.15 K, 101.32 kPa, Liquid

CCO [ethanol]
Settings	mass density [kg/m3]	refractive index
[1]	–	1.3592
[2]	785.32	–

CCI [iodoethane]
Settings	mass density [kg/m3]	refractive index
[1]	–	1.5095
[2]	1923.75	–

CCI [iodoethane] + CCCO
Settings	mass density, [3] [kg/m3]	refractive index, [4]
x2 = 0.0332	1887.25	1.505
x2 = 0.0469	1872.23	1.503
x2 = 0.0528	1865.57	1.502
x2 = 0.2862	1611.62	1.4688
x2 = 0.3861	1501.9	1.4567
x2 = 0.4714	1407.06	1.447
x2 = 0.5981	1264.7	1.4299
x2 = 0.6984	1150.74	1.418
x2 = 0.7894	1046.25	1.4077
x2 = 0.8728	949.54	1.397
x2 = 0.9101	905.96	1.393

CCI [iodoethane] + CCO
Settings	mass density, [3] [kg/m3]	refractive index, [4]
x2 = 0.0481	1880.86	1.503
x2 = 0.0942	1839.5	1.4971
x2 = 0.2302	1712.7	1.479
x2 = 0.29	1654.4	1.4701
x2 = 0.3989	1543.6	1.4535
x2 = 0.4889	1447.12	1.442
x2 = 0.6035	1316.7	1.4241
x2 = 0.687	1215.7	1.4093
x2 = 0.7935	1078.8	1.3929
x2 = 0.8994	933.27	1.3761
x2 = 0.9522	856.7	1.3675

CCI [iodoethane] + CO
Settings	mass density, [3] [kg/m3]	refractive index, [4]
x2 = 0.1198	1843.6	1.4964
x2 = 0.1399	1829.8	1.4938
x2 = 0.2068	1783	1.4869
x2 = 0.26	1743.6	1.4787
x2 = 0.4066	1622.2	1.4578
x2 = 0.4234	1606.9	1.4553
x2 = 0.4808	1552.1	1.4451
x2 = 0.4954	1537.5	1.4436
x2 = 0.5699	1458.5	1.4302
x2 = 0.6771	1329.5	1.4084
x2 = 0.7989	1156.8	1.3821
x2 = 0.9094	969.6	1.3534

CCI [iodoethane] + Cc1ccccc1
Settings	mass density, [3] [kg/m3]	refractive index, [4]
x2 = 0.1279	1749.5	1.5056
x2 = 0.2014	1655.8	1.5038
x2 = 0.3085	1526.9	1.5012
x2 = 0.3955	1428.3	1.5002
x2 = 0.4476	1371.7	1.499
x2 = 0.4678	1350.2	1.4992
x2 = 0.4961	1320.5	1.4983
x2 = 0.5735	1241.7	1.4974
x2 = 0.6009	1214.7	1.4968
x2 = 0.6974	1122.5	1.4959
x2 = 0.7276	1094.6	1.4957
x2 = 0.7984	1031	1.4948
x2 = 0.8866	954.9	1.4943
x2 = 0.9322	916.9	1.494

CO [methanol]
Settings	mass density [kg/m3]	refractive index
[1]	–	1.3262
[2]	787.98	–

CCCO [propan-1-ol]
Settings	mass density [kg/m3]	refractive index
[1]	–	1.3829
[2]	799.69	–

Cc1ccccc1 [toluene]
Settings	mass density [kg/m3]	refractive index
[1]	–	1.4938
[2]	862.28	–

Cc1ccccc1 [toluene] + CCCO
Settings	mass density, [3] [kg/m3]	refractive index, [4]
x1 = 0.0609	805.41	1.3918
x1 = 0.0969	808.53	1.397
x1 = 0.1939	816.4	1.4108
x1 = 0.3036	824.3	1.4249
x1 = 0.3965	830.4	1.4349
x1 = 0.4988	836.58	1.4469
x1 = 0.5524	839.64	1.4509
x1 = 0.5932	841.82	1.4533
x1 = 0.692	847.02	1.466
x1 = 0.77	851.01	1.473
x1 = 0.9274	858.78	1.4873
x1 = 0.9343	859.08	1.488

Cc1ccccc1 [toluene] + CCO
Settings	mass density, [3] [kg/m3]	refractive index, [4]
x1 = 0.0476	792.25	1.3699
x1 = 0.1205	801.71	1.385
x1 = 0.1948	810	1.3993
x1 = 0.2994	820.14	1.4163
x1 = 0.3992	828.34	1.4311
x1 = 0.4884	834.71	1.443
x1 = 0.5577	839.3	1.4518
x1 = 0.5994	841.81	1.4565
x1 = 0.7159	848.36	1.4682
x1 = 0.7646	850.92	1.4732
x1 = 0.8915	857.06	1.485
x1 = 0.8917	857.09	1.485

Cc1ccccc1 [toluene] + CO
Settings	mass density, [3] [kg/m3]	refractive index, [4]
x1 = 0.0491	797.2	1.3464
x1 = 0.1058	806.2	1.366
x1 = 0.199	818.1	1.3921
x1 = 0.3361	831.1	1.4215
x1 = 0.4097	836.6	1.4337
x1 = 0.4501	839.2	1.4402
x1 = 0.5024	842.4	1.4478
x1 = 0.5393	844.4	1.4527
x1 = 0.5818	846.6	1.4579
x1 = 0.6961	851.7	1.47
x1 = 0.7764	854.8	1.4778
x1 = 0.8695	858	1.485
x1 = 0.9416	860.2	1.4904
